35 compounds from patent US20250332173A1, “COMPOUNDS AND METHODS FOR MODULATING NUCLEIC ACID SPLICING” (REMIX THERAPEUTICS INC., priority 2021, published 2025) can be followed below.

Format in all cases: cell-based, human
The test system of one test is MYB. Kind of test: HiBiT protein abundance assay, MYB HiBiT K562 cell line. Conditions: HiBiT K562 cell line, 24 hours, top dose 10 μM; read-out: Effect on protein abundance, MYB (IC50 category). In short, it runs like this:
(§1)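 Endogenous targets in K562 knock-in lines carried a HiBiT tag and were treated for 24 h at 37 °C with 10-point 3-fold dilutions (top 10 μM final, DMSO ≤0.25%). Abundance was read as lytic Nano-Glo HiBiT luminescence. IC50 came from a four-parameter logistic fit of normalized response.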
(In general: With HiBiT, luminescence reflects the tagged protein that the partner subunit can reach.)

A further test deals with HTT. In words: HiBiT protein abundance assay, HTT HiBiT K562 cell line. Particulars: HiBiT K562 cell line, 24 hours, top dose 10 μM; read-out: Effect on protein abundance, HTT (IC50 category). The essentials: as §1
Another test concerns Target C. Kind of test: HiBiT protein abundance assay, Target C (Promega Nano-Glo HiBiT Lytic Detection System, knock-in K562 cell line). Particulars: Homo sapiens, K562, 24 h, HiBiT K562 cell line, 24 hours, top dose 10 μM; read-out: Effect on protein abundance, Target C (IC50 category). The essentials: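 HiBiT knock-in K562 cells (10,000/well) were treated for 24 h at 37 °C with a 10-point 3-fold dilution series, top final concentration 10 μM, DMSO ≤0.25%. Lytic HiBiT luminescence was read, normalized to unmodified K562 and DMSO-treated controls, and IC50 was interpolated from a four-parameter logistic fit.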

What is called IC50 is the concentration at which inhibition is half-maximal. With `Cc1cn2nc(-c3ccc4c(=O)n(C5C[C@@H](C)N[C@H](C)C5)ncc4n3)cc(C)c2n1` (stereo in doubt) [Compound 1537, 2-(2,8-dimethylimidazo[1,2-b]pyridazin-6-yl)-6-[(2R,6R)-2,6-dimethyl-4-piperidyl]pyrido[2,3-d]pyridazin-5-one], the IC50 in the test on MYB, in the test on HTT and with Target C was 100 to 1000 nM each time.

On to `Cc1cn2nc(-c3ccc4c(=O)n([C@H]5CC(C)N[C@@H](C)C5)ncc4n3)cc(C)c2n1` (stereo in doubt) [Compound 1538, 2-(2,8-dimethylimidazo[1,2-b]pyridazin-6-yl)-6-[(2S,6S)-2,6-dimethyl-4-piperidyl]pyrido[2,3-d]pyridazin-5-one], for which the IC50 with MYB, in the test with HTT and in the test with Target C was 100 to 1000 nM each time.

On to `Cc1cn2cc(-c3ccc4c(=O)n(C5CCNCC5)cnc4c3)cc(F)c2n1` [Compound 205], for which the 50% inhibitory concentration (IC50) in the test on MYB, in the test with HTT and in the test on Target C was 100 to 1000 nM each time.

In the case of `Cn1cc2cc(-c3ccc4c(=O)n(C5CCNCC5)cnc4c3)cc(F)c2n1` [Compound 206], the half-inhibitory concentration (IC50) in the test on MYB, in the test on HTT and in the test with Target C was 100 to 1000 nM throughout.

On to `Cc1cn2cc(-c3ccc4c(=O)n(C5CCN(C)CC5)cnc4c3)cc(F)c2n1` [Compound 207], for which the IC50 in the test with MYB, in the test with HTT and in the test with Target C was 1000 to 10000 nM throughout.

For `CN1CCC(n2cnc3cc(-c4ccc5nn(C)cc5c4)ccc3c2=O)CC1` [Compound 208], the IC50 was 1000 to 10000 nM in the test with MYB, 1000 to 10000 nM with HTT and > 10000 nM with Target C.

Take `CN1CCC(n2cnc3cc(-c4cc(F)c5nn(C)cc5c4)ccc3c2=O)CC1` [Compound 209]: the half-inhibitory concentration (IC50) in the test with MYB, in the test on HTT and with Target C was > 10000 nM in each case.

With `Cc1cn2cc(-c3ccc4c(=O)n(C5CCNCC5)cnc4c3F)cc(F)c2n1` [Compound 210], the half-inhibitory concentration (IC50) in the test on MYB, with HTT and with Target C was 1000 to 10000 nM throughout.

Consider `Cc1nc2c(F)cc(-c3ccc4c(c3)CCN(C3CCNCC3)C4=O)cc2o1` [Compound 215], for which the IC50 in the test with MYB fell in the range of 100 to 1000 nM; in the test on HTT, 100 to 1000 nM; in the test with Target C, 1000 to 10000 nM.

As for `Cc1cn2cc(-c3ccc4c(c3)CCN(C3CCNCC3)C4=O)cc(Cl)c2n1` [Compound 216, 6-[8-chloro-2-methylimidazo[1,2-a]pyridin-6-yl]-2-(piperidin-4-yl)-3,4-dihydroisoquinolin-1-one], the half-maximal inhibitory concentration (IC50) in the test with MYB was in the range of 100 to 1000 nM; in the test with HTT it was 100 to 1000 nM; in the test with Target C, 1000 to 10000 nM.

As for `Cc1cn2cc(-c3ccc4c(c3)CCN(C3CCNCC3)C4=O)cc(C)c2n1` [Compound 217, 6-[2,8-dimethylimidazo[1,2-a]pyridin-6-yl]-2-(piperidin-4-yl)-3,4-dihydroisoquinolin-1-one], the IC50 in the test on MYB is 100 to 1000 nM; in the test on HTT, 100 to 1000 nM; in the test with Target C it was > 10000 nM.

`Cc1cn2cc(-c3ccc4c(c3)CCN(C3CCNCC3)C4=O)c(C)cc2n1` [Compound 218, 6-[2,7-dimethylimidazo[1,2-a]pyridin-6-yl]-2-(piperidin-4-yl)-3,4-dihydroisoquinolin-1-one]: the half-maximal inhibitory concentration (IC50) in the test with MYB, with HTT and with Target C was 1000 to 10000 nM throughout.

`Cc1cc(-c2ccc3c(c2)CCN(C2CCNCC2)C3=O)cc2cn(C)nc12` [Compound 219, 6-(2,7-dimethylindazol-5-yl)-2-(piperidin-4-yl)-3,4-dihydroisoquinolin-1-one]: the values for the half-maximal inhibitory concentration (IC50) in the test with MYB, with HTT and in the test with Target C were 100 to 1000 nM, 100 to 1000 nM and > 10000 nM, respectively.

On to `O=C1c2ccc(-c3cn[nH]c3)cc2CCN1C1CCNCC1` [Compound 220, 2-(piperidin-4-yl)-6-(1H-pyrazol-4-yl)-3,4-dihydroisoquinolin-1-one], for which the IC50 with MYB, in the test on HTT and in the test on Target C was > 10000 nM in each case.

Take `Cc1cn2cc(-c3ccc4c(c3)CCN(C3CCNCC3)C4=O)nc2c(C)n1` [Compound 221, 6-[6,8-dimethylimidazo[1,2-a]pyrazin-2-yl]-2-(piperidin-4-yl)-3,4-dihydroisoquinolin-1-one]: the IC50 in the test on MYB, in the test on HTT and in the test with Target C was > 10000 nM in each case.

Consider `Cc1cn2nc(-c3ccc4c(c3)CCN(C3CCNCC3)C4=O)nc2c(C)n1` [Compound 222, 6-[6,8-dimethyl-[1,2,4]triazolo[1,5-a]pyrazin-2-yl]-2-(piperidin-4-yl)-3,4-dihydroisoquinolin-1-one], for which the 50% inhibitory concentration (IC50) in the test on MYB, in the test on HTT and in the test with Target C was 1000 to 10000 nM in each case.

For the compound `Cc1cn2nc(-c3ccc4c(c3)CCN(C3CCNCC3)C4=O)cc2c(C)n1` [Compound 223, 6-[4,6-dimethylpyrazolo[1,5-a]pyrazin-2-yl]-2-(piperidin-4-yl)-3,4-dihydroisoquinolin-1-one], the IC50 is 1000 to 10000 nM in the test with MYB, 1000 to 10000 nM with HTT and > 10000 nM with Target C.

As for `Cc1cn2cc(-c3ccc4c(c3)CCN(C3CCNCC3)C4=O)ncc2n1` [Compound 224], the IC50 in the test on MYB, with HTT and in the test with Target C was > 10000 nM each time.

On to `Cn1cc2cc(-c3ccc4c(c3)CCN(C3CCNCC3)C4=O)cc(F)c2n1` [Compound 225], for which the IC50 in the test on MYB is 1000 to 10000 nM; in the test on HTT, 1000 to 10000 nM; in the test on Target C, > 10000 nM.

In the case of `Cc1nc2c(F)cc(-c3ccc4c(c3)CCN(C3CCNCC3)C4=O)cc2s1` [Compound 226], the IC50 in the test with MYB is 1000 to 10000 nM; in the test with HTT it was 1000 to 10000 nM; in the test with Target C, > 10000 nM.

With `Cc1cn2cc(-c3ccc4c(=O)n(C5CCN(C)CC5)cnc4c3F)cc(F)c2n1` [Compound 227], the IC50 with MYB is 1000 to 10000 nM; in the test on HTT, 1000 to 10000 nM; in the test on Target C it was > 10000 nM.

In the case of `Cc1cn2cc(-n3cnc4cc(N5CCNCC5)ccc4c3=O)cc(F)c2n1` [Compound 228], the IC50 in the test with MYB, with HTT and in the test with Target C was 100 to 1000 nM throughout.

Consider `Cc1cn2cc(-n3cnc4cc(N5CCN(C)CC5)ccc4c3=O)cc(F)c2n1` [Compound 229], for which the IC50 in the test with MYB, in the test with HTT and in the test with Target C was > 10000 nM each time.

Consider `Cc1cn2cc(-c3cc(F)c4c(=O)n(C5CCNCC5)cnc4c3)cc(F)c2n1` [Compound 230], for which the IC50 with MYB was < 100 nM; with HTT it was 100 to 1000 nM; with Target C, 100 to 1000 nM.

For the compound `Cc1cn2cc(-c3cc(F)c4c(=O)n(C5CCN(C)CC5)cnc4c3)cc(F)c2n1` [Compound 231, 5-fluoro-7-{8-fluoro-2-methylimidazo[1,2-a]pyridin-6-yl}-3-(1-methylpiperidin-4-yl)quinazolin-4-one], the half-maximal inhibitory concentration (IC50) in the test with MYB, with HTT and in the test with Target C was 100 to 1000 nM each time.

In the case of `Cc1cc(-c2cc(F)c3c(=O)n(C4CCNCC4)cnc3c2)cc2cn(C)nc12` [Compound 232], the IC50 with MYB is < 100 nM; in the test on HTT it was < 100 nM; in the test with Target C it was 100 to 1000 nM.

As to `Cc1cc(-c2cc(F)c3c(=O)n(C4CCN(C)CC4)cnc3c2)cc2cn(C)nc12` [Compound 233], the IC50 in the test with MYB, in the test on HTT and with Target C was 100 to 1000 nM each time.

On to `Cc1cc(-c2ccc3c(=O)n(C4CCNCC4)cnc3c2F)cc2cn(C)nc12` [Compound 234], for which the concentration for half-maximal inhibition (IC50) in the test on MYB, with HTT and in the test with Target C was 1000 to 10000 nM throughout.

For `Cc1cc(-c2ccc3c(=O)n(C4CCN(C)CC4)cnc3c2F)cc2cn(C)nc12` [Compound 235], the half-maximal inhibitory concentration (IC50) with MYB was 1000 to 10000 nM; with HTT, > 10000 nM; in the test with Target C, > 10000 nM.

Take `Cc1cn2cc(-c3ccc4c(=O)n(C5CCNC6(CC6)C5)cnc4c3)cc(F)c2n1` (stereo not drawn) [Compound 236]: the results for the 50% inhibitory concentration (IC50) in the test on MYB, in the test on HTT and in the test with Target C were 100 to 1000 nM, 100 to 1000 nM and 1000 to 10000 nM, respectively.

As to `Cc1cn2cc(-c3ccc4c(=O)n(C5CCNC(C)(C)C5)cnc4c3)cc(F)c2n1` (stereo not drawn) [Compound 237], the results for the half-maximal inhibitory concentration (IC50) with MYB, with HTT and in the test with Target C were 100 to 1000 nM, 100 to 1000 nM and 1000 to 10000 nM, respectively.

As for `Cc1cn2nc(-n3cnc4cc(N5CCNCC5)ccc4c3=O)cc(C)c2n1` [Compound 241], the half-maximal inhibitory concentration (IC50) with MYB, with HTT and in the test on Target C was 1000 to 10000 nM throughout.

As to `Cc1cn2nc(-c3cc(F)c4c(=O)n(C5CCN(C)CC5)cnc4c3)cc(C)c2n1` [Compound 242], the IC50 in the test with MYB, in the test with HTT and in the test with Target C was < 100 nM each time.

As for `Cc1cn2cc(-c3ncc4c(=O)n([C@H]5CCNC6(CC6)C5)ccc4n3)cc(F)c2n1` [Compound 1458, 6-[(7S)-4-azaspiro[2.5]octan-7-yl]-2-(8-fluoro-2-methyl-imidazo[1,2-a]pyridin-6-yl)pyrido[4,3-d]pyrimidin-5-one], the half-inhibitory concentration (IC50) in the test with MYB is < 100 nM; in the test on HTT, 100 to 1000 nM; in the test on Target C, 100 to 1000 nM.

`Cc1c(O)c(-c2ncc3c(=O)n([C@H]4CC[C@H](N(C)C)CC4)ccc3n2)cc2cn(C)nc12` [Compound 1459, 6-((1r,4r)-4-(dimethylamino)cyclohexyl)-2-(6-hydroxy-2,7-dimethyl-2H-indazol-5-yl)pyrido[4,3-d]pyrimidin-5(6H)-one]: the IC50 is < 100 nM in the test on MYB, 100 to 1000 nM in the test on HTT and 100 to 1000 nM in the test with Target C.
